Data reported in patent US20150126573A1, “METHODS AND PHARMACEUTICAL COMPOSITIONS FOR PREVENTION OR TREATMENT OF CHRONIC OBSTRUCTIVE PULMONARY DISEASE” (INSERM (INSTITUT NATIONAL DE LA SANTE ET DE LA RECHERCHE …, priority 2012, published 2015).

Key:
Primary lung fibroblasts = test: Single 24 h exposure of non-senescent lung fibroblasts to PGE2 (accelerated senescence and related inflammation); assay type: cell-based, human; details: for PGE2-induced SA-β gal and p21 expression: control fibroblasts (NS-C and S-C), antagonists 10 μM; for increase in IL-6, CX3CL1, FGF2, VEGF, MMP2 and TIMP2 induced by PGE2: fibroblasts, EP2 and EP4 antagonists
Excerpt: Primary lung fibroblasts were isolated by the explant technique (Normand J and Karasek M A. In Vitro Cell Dev Biol Anim 1995; 31:447-455) from lung specimens obtained for lung tumor resection from 25 patients with COPD and 35 subjects without clinical, morphological or functional signs of COPD (controls) (Table 1). Controls were divided into non-smoker and smoker groups (NS-C, n=10 and S-C, n=25 respectively). Smoking status (current smokers or ex-smokers, defined by smoking cessation after more than 1 year (Lapperre T S et al., Respir Res 2007; 8:85; Savale L et al. Am J Respir Crit Care Med 2009), was considered in the analysis of the different results (Table 2). Classification of COPD severity was based on the 2003 Global initiative for chronic obstructive lung disease (GOLD) criteria (Rabe K F et al., Am J Respir Crit Care Med 2007; 176:532-555). Informed consent was obtained from all patients and the study was approved by the “Comite de Protection des Personnes Ile de France IX”.
(§1) Fibroblasts were exposed to either PGE2 (0.5 to 50 ng ml^−1) or conditioned medium (CM) collected from fibroblasts incubated for 24 h. In different experiments cells were treated with inhibitors of COXs, agonists or antagonists of prostaglandin receptors EP2 and EP4, the antioxidant N-acetylcysteine (NAC), or the inhibitor of p53 transcriptional effects pifithriñ-α.
(§2) Senescence was characterized by measuring cumulative population doubling levels (PDLs) (Holz O et al., Eur Respir J 2004; 24:575-579), telomere length (Savale L et al., Am J Respir Crit Care Med 2009), senescence associated β-galactosidase activity (SA β-Gal) (Dimri G P. Cancer Cell 2005; 7:505-512), and the expression of phospho (serine 15)-p53 p16, p21, and caspase 3 by western blot, immunofluorecence and RT-qPCR analysis. The level of 29 soluble factors in conditioned medium was quantified using the Luminex technology (Millipore, Molscheim, France).

[1] = tested on: Non-senescent fibroblasts from S-C and COPD patients (target fibroblasts); test: Paracrine senescence: target fibroblasts incubated 24 h with conditioned medium (CM) from senescent fibroblasts; assay type: cell-based, human
Procedure: as §1, §2
Non-senescent fibroblasts from S-C and COPD patients (further called target fibroblasts) were incubated 24 h with conditioned medium (CM) from cells of the respective groups obtained at non-senescent and senescent passages. […] Both S-C and COPD CM obtained at senescent passage increased the percentage SA-β gal, phospho (serine 15)-p53, p21, and p16 protein expression, as well as IL-6, IL-8, MCP-1 and FGF-2 mRNA expression in target cells.

PGE2 = PGE2 quantification in fibroblast culture/conditioned medium (Prostaglandin E2 monoclonal EIA kit); assay type: cell-based, human; details: for reduction of the levels of PGE2 in CM: treatment of fibroblasts with COX inhibitors
Procedure: as §1
(§3) PGE2 was quantified by using the Prostaglandin E2 monoclonal EIA kit (Bertin Pharma, Montigny le Bretonneux, France). PGE2 receptors and enzymes involved in PGE2 synthesis were quantified by RT-qPCR. Cellular reactive oxygen species production was quantified by the DCFH-DA assay (Carter W et al., J Leukoc Biol 1994; 55:253-258).

fibroblasts = test: Cellular reactive oxygen species production (DCFH-DA assay) and oxidant signalling in PGE2-exposed fibroblasts; assay type: cell-based, human; details: for increase in ROS, and SA β-gal and p21 expression induced by PGE2: 24 h pre-treatment of fibroblasts
Procedure: as §1, §3

[2] = tested on: lung mRNA expression of senescence markers and cytokines; test: Intratracheal instillation of PGE2 in mice, lung mRNA expression of senescence markers and cytokines; assay type: in vivo
Procedure: Male 8-week-old mice of C57BL/6 background and p53−/− animals (kindly provided by Tyler Jacks, MIT, Cambridge) were intratracheally instilled with either PGE2 (1 ng·ml^−1) or vehicle (DMSO 1/10000). Instilled volume was 50 μl. Twenty-four and 48 h after instillation mice were sacrificed and analysis of lung mRNA expression of senescence markers and cytokines were performed. Studies were conducted in compliance with INSERM guidelines regarding the fair treatment of animals.

human dermal fibroblasts = details: Yang H H et al., Biogerontology 2011; cited from earlier work
S-C and COPD fibroblasts = test: Replicative senescence of S-C and COPD fibroblasts during successive passages (repeated PGE2 exposure or COX inhibitors); assay type: cell-based, human
Procedure: as §1, §2
Finally, the inventors investigated if endogenous PGE2 was involved in replicative senescence.

[3] = pre-treatment of target fibroblasts
[4] = COPD fibroblasts, both antagonists (EP2 + EP4) used simultaneously, versus one antagonist
[5] = COPD fibroblasts, one antagonist alone (10 μM), PGE2 10 ng·ml−1
[6] = wild type mice, single intra-tracheal instillation
[7] = repeated exposures to PGE2 at 1 ng·ml−1, passage 3 to 9
[8] = repeated exposures to PGE2 at 1 ng·ml−1, passage 3 to 9, S-C and COPD fibroblasts, greater in COPD

## Cc1ccc(C(=O)Cn2c3c(sc2=N)CCCC3)cc1 [pifithrin-α]
Primary lung fibroblasts; COPD and control fibroblasts
  PGE2-induced SA β-gal and p21 expression: completely prevented
Primary lung fibroblasts; control and COPD fibroblasts
  increase in IL6, CX3CL1, MMP-2 and TIMP-2 levels induced by PGE2: completely prevented
  increase in p16 induced by PGE2: without modification
[1]; [3]
  increase in FGF-2 mRNA expression induced by CM: not modified
  increase in IL-6, IL-8 and MCP-1 mRNA expression induced by CM: suppressed
  increase in SA β-gal positive cells and induction of p21 protein by S-C and COPD senescent CM: suppressed

## COc1ccc2c(c1)c(CC(=O)O)c(C)n2C(=O)c1ccc(Cl)cc1 [indomethacin]
[1]; target cells incubated with CM from fibroblasts treated with COX inhibitor
  percentage of SA β-gal positive cells and p21 protein expression: parallel significant reduction
PGE2
  reduction of the levels of PGE2 in CM: 60%
fibroblasts
  increase in ROS, and SA β-gal and p21 expression induced by PGE2: significantly reduced

## CCOc1c2c(c(OCC)c3ccccc13)C(=O)N(c1ccc(CC(=O)NS(=O)(=O)c3ccccc3)cc1)C2 [GW627368X]
Primary lung fibroblasts; [4]
  PGE2-induced SA β-gal and p21 expression: small but significant higher effect
Primary lung fibroblasts; [5]
  PGE2-induced SA β-gal and p21 expression: significantly reduced
Primary lung fibroblasts; PGE2 10 ng·ml−1
  PGE2-induced SA-β gal and p21 expression: only the simultaneous application of both antagonists decreased
Primary lung fibroblasts
  increase in IL-6, CX3CL1, FGF2, VEGF, MMP2 and TIMP2 induced by PGE2: both antagonists were needed to suppress

## Cc1ccc(-c2cc(C(F)(F)F)nn2-c2ccc(S(N)(=O)=O)cc2)cc1 [celecoxib]
PGE2
  reduction of the levels of PGE2 in CM: 60%

## CC(=O)N[C@@H](CS)C(=O)O [N-acetyl-cysteine]
fibroblasts
  increase in ROS, and SA β-gal and p21 expression induced by PGE2: significantly reduced

## CCCCC[C@H](O)/C=C/[C@H]1[C@H](O)CC(=O)[C@@H]1C/C=C\CCCC(=O)O [PGE2, prostaglandin E2]
Primary lung fibroblasts; fibroblasts of the three groups of patients after PGE2
  cleaved caspase-3 (and phosphatidyl serine residues): absence
Primary lung fibroblasts; non-senescent NS-C, S-C and COPD fibroblasts, 24 h incubation with PGE2 (0.5 to 50 ng ml−1), higher in COPD
  percentage of cells expressing SA β-gal, p21 and p16 protein: dose-response increase
Primary lung fibroblasts; non-senescent fibroblasts, 24 h incubation with PGE2, higher in COPD
  levels of IL-6, CX3CL1, VEGF, FGF2, MMP-2 and TIMP-2 in cell culture supernatant: increase
[2]; mice, at 48 h
  COX2 mRNA levels: increased
[2]; p53−/− mice
  induction of p21 and inflammatory mediators: not observed
[2]; [6]
  p16 expression in lung: no change
  pulmonary expression of inflammatory mediators (IL-6, CX3CL1, FGF2, VEGF, MMP2): induced
[2]; wild type mice, single intra-tracheal instillation, at 24 h and 48 h respectively
  pulmonary expression of p53 and p21: induced
PGE2; fibroblasts exposed to exogenous PGE2
  synthesis of endogenous PGE2: induced
fibroblasts; PGE2-exposed COPD cells, single exposure
  activation of the DNA damage-activated transcription factor ATM: No activation
fibroblasts; fibroblasts incubated with PGE2
  concentration of intracellular ROS and expression of the oxidant-sensitive protein HO-1: increased in a dose-dependent manner only in fibroblasts from COPD patients
Human dermal fibroblasts
  concentration from which the effect of PGE2 (aggravated replicative senescence) was observed: ≥ 5 µM
S-C and COPD fibroblasts; COPD fibroblasts, repeated exposure to PGE2
  expression of phosphorylated-ATM: enhanced
S-C and COPD fibroblasts; [7]
  expression of MCP3: not modified
  reduction in telomeres length: did not modify
S-C and COPD fibroblasts; [8]
  induction of SA-β gal, p21, p16, COX2 and HO-1 expression, and levels of IL-6, IL-8, GRO, VEGF and CX3CL: enhanced
  senescence-associated cumulative PDL: further reduced

## O=C1CC[C@H](/C=C/[C@@H](O)Cc2ccccc2)N1CCCCCCc1nn[nH]n1 [CAY10598]
Primary lung fibroblasts; COPD and control fibroblasts, both agonists (EP2 + EP4) used simultaneously, versus one agonist
  SA β-gal and p21 expression (agonists, no PGE2): small but significant higher effect
Primary lung fibroblasts; COPD and control fibroblasts, one agonist
  SA β-gal and p21 expression (agonist alone, no PGE2): mimicked PGE2 effects

## CC(C)Oc1ccc2c(=O)c3cc(C(=O)O)ccc3oc2c1 [AH6809]
Primary lung fibroblasts; [4]
  PGE2-induced SA β-gal and p21 expression: small but significant higher effect
Primary lung fibroblasts; [5]
  PGE2-induced SA β-gal and p21 expression: significantly reduced
Primary lung fibroblasts; PGE2 10 ng·ml−1
  PGE2-induced SA-β gal and p21 expression: only the simultaneous application of both antagonists decreased
Primary lung fibroblasts
  increase in IL-6, CX3CL1, FGF2, VEGF, MMP2 and TIMP2 induced by PGE2: both antagonists were needed to suppress
